Activity calls are given as the source filed them. No cut-off for these calls is given here.
Tests used:
[1] = tested on: Mus musculus; experiment: Toxicity in male ICR-SPF mouse assessed as induction of body weight changes at 100 mg/kg, iv administered as single dose measured 14 days post dose; assay type: organism-based; design: dose 100 mg/kg, route intravenous; details: in vivo, 336 h
[2] = tested on: Mus musculus; experiment: Toxicity in female ICR-SPF mouse assessed as induction of body weight changes at 100 mg/kg, iv administered as single dose measured 14 days post dose; assay type: organism-based; design: dose 100 mg/kg, route intravenous; details: in vivo, 336 h
[3] = tested on: Mus musculus; experiment: Toxicity in male ICR-SPF mouse assessed as autopsy changes at 10 mg/kg, iv administered as single dose measured 14 days post dose; assay type: organism-based; design: dose 10 mg/kg, route intravenous; details: in vivo, 336 h
[4] = tested on: Mus musculus; experiment: Toxicity in female ICR-SPF mouse assessed as autopsy changes at 10 mg/kg, iv administered as single dose measured 14 days post dose; assay type: organism-based; design: dose 10 mg/kg, route intravenous; details: in vivo, 336 h
[5] = tested on: Mus musculus; experiment: Toxicity in male ICR-SPF mouse assessed as autopsy changes at 30 mg/kg, iv administered as single dose measured 14 days post dose; assay type: organism-based; design: dose 30 mg/kg, route intravenous; details: in vivo, 336 h
[6] = tested on: Mus musculus; experiment: Toxicity in female ICR-SPF mouse assessed as autopsy changes at 30 mg/kg, iv administered as single dose measured 14 days post dose; assay type: organism-based; design: dose 30 mg/kg, route intravenous; details: in vivo, 336 h
[7] = tested on: Mus musculus; experiment: Toxicity in male ICR-SPF mouse assessed as autopsy changes at 100 mg/kg, iv administered as single dose measured 14 days post dose; assay type: organism-based; design: dose 100 mg/kg, route intravenous; details: in vivo, 336 h
[8] = tested on: Mus musculus; experiment: Toxicity in female ICR-SPF mouse assessed as autopsy changes at 100 mg/kg, iv administered as single dose measured 14 days post dose; assay type: organism-based; design: dose 100 mg/kg, route intravenous; details: in vivo, 336 h
[9] = tested on: Mus musculus; experiment: Toxicity in iv dosed male ICR-SPF mouse administered as single dose measured 14 days post dose; assay type: organism-based; details: in vivo, 336 h
[10] = tested on: Mus musculus; experiment: Toxicity in iv dosed female ICR-SPF mouse administered as single dose measured 14 days post dose; assay type: organism-based; details: in vivo, 336 h
[11] = tested on: B-cell; experiment: Immunosuppressive activity in B cells (unknown origin) assessed as inhibition of LPS-induced cell proliferation at 1 to 100 ng/mL; assay type: functional, cell-based
[12] = tested on: T-cell; experiment: Immunosuppressive activity in T cells (unknown origin) assessed as inhibition of Con A-induced cell proliferation at 1 to 100 ng/mL; assay type: functional, cell-based
[13] = tested on: RAW264.7; experiment: Inhibition of nitric oxide production in mouse RAW264.7 cells at 1 to 100 ng/mL; assay type: functional, cell-based
[14] = tested on: Macrophage; experiment: Inhibition of nitric oxide production in bone marrow-derived macrophages (unknown origin) at 1 to 100 ng/mL; assay type: functional, cell-based
[15] = tested on: Dendritic cell; experiment: Inhibition of LPS-induced IL-12 production in bone marrow-derived dendritic cells (unknown origin) at 1 to 100 ng/mL; assay type: functional, cell-based
[16] = Toxicity in LPS-induced bone marrow-derived dendritic cells (unknown origin) assessed as effect on cell viability at 1 to 100 ng/mL; assay type: cell-based
[17] = species on record: Mus musculus; experiment: Immunosuppressive activity in SRBC immunized mouse assessed as suppression of B-cell mediated immune response; assay type: functional, organism-based
[18] = tested on: Mus musculus; experiment: Immunosuppressive activity in zymosan A-induced arthritis C57BL/6 mouse model assessed as reduction in pLN weight increase dosed after zymosan A challenge; assay type: functional, organism-based
[19] = tested on: Mus musculus; experiment: Immunosuppressive activity in carrageenan-induced paw edema C57BL/6 mouse model assessed as reduction in pLN weight increase dosed after carrageenan challenge; assay type: functional, organism-based
[20] = tested on: Mus musculus; experiment: Toxicity in C57BL/6 mouse assessed as induction of body weight loss at 1 mg/kg, iv dosed once daily for 4 days; assay type: organism-based; design: dose 1 mg/kg, route intravenous; details: in vivo, 96 h
[21] = tested on: Mus musculus; experiment: Toxicity in C57BL/6 mouse assessed as induction of body weight loss at 0.1 to 3 mg/kg, iv dosed once daily for 4 days; assay type: organism-based; design: dose 0.1-3 mg/kg, route intravenous; details: in vivo, 96 h
[22] = tested on: Mus musculus; experiment: Toxicity in C57BL/6 mouse assessed as induction of spleen weight loss at 0.1 to 3 mg/kg, iv dosed once daily for 4 days; assay type: organism-based; design: dose 0.1-3 mg/kg, route intravenous; details: in vivo, 96 h
[23] = tested on: Mus musculus; experiment: Intestinal toxicity in C57BL/6 mouse assessed as induction of intestinal dilation at 1 mg/kg, iv dosed once daily for 4 days; assay type: organism-based; design: dose 1 mg/kg, route intravenous; details: in vivo, 96 h
[24] = tested on: Mus musculus; experiment: Toxicity in male ICR-SPF mouse assessed as mortality incidences at 10 mg/kg, iv administered as single dose measured 14 days post dose; assay type: organism-based; design: dose 10 mg/kg, route intravenous; details: in vivo, 336 h
[25] = tested on: Mus musculus; experiment: Toxicity in female ICR-SPF mouse assessed as mortality incidences at 10 mg/kg, iv administered as single dose measured 14 days post dose; assay type: organism-based; design: dose 10 mg/kg, route intravenous; details: in vivo, 336 h
[26] = tested on: Mus musculus; experiment: Toxicity in male ICR-SPF mouse assessed as mortality incidences at 30 mg/kg, iv administered as single dose measured 14 days post dose; assay type: organism-based; design: dose 30 mg/kg, route intravenous; details: in vivo, 336 h
[27] = tested on: Mus musculus; experiment: Toxicity in female ICR-SPF mouse assessed as mortality incidences at 30 mg/kg, iv administered as single dose measured 14 days post dose; assay type: organism-based; design: dose 30 mg/kg, route intravenous; details: in vivo, 336 h
[28] = tested on: Mus musculus; experiment: Toxicity in male ICR-SPF mouse assessed as mortality incidences at 100 mg/kg, iv administered as single dose measured 14 days post dose; assay type: organism-based; design: dose 100 mg/kg, route intravenous; details: in vivo, 336 h
[29] = tested on: Mus musculus; experiment: Toxicity in female ICR-SPF mouse assessed as mortality incidences at 100 mg/kg, iv administered as single dose measured 14 days post dose; assay type: organism-based; design: dose 100 mg/kg, route intravenous; details: in vivo, 336 h
[30] = tested on: Mus musculus; experiment: Toxicity in male ICR-SPF mouse assessed as induction of body weight changes at 10 mg/kg, iv administered as single dose measured 14 days post dose; assay type: organism-based; design: dose 10 mg/kg, route intravenous; details: in vivo, 336 h
[31] = tested on: Mus musculus; experiment: Toxicity in female ICR-SPF mouse assessed as induction of body weight changes at 10 mg/kg, iv administered as single dose measured 14 days post dose; assay type: organism-based; design: dose 10 mg/kg, route intravenous; details: in vivo, 336 h
[32] = tested on: Mus musculus; experiment: Toxicity in male ICR-SPF mouse assessed as induction of body weight changes at 30 mg/kg, iv administered as single dose measured 14 days post dose; assay type: organism-based; design: dose 30 mg/kg, route intravenous; details: in vivo, 336 h
[33] = tested on: Mus musculus; experiment: Toxicity in female ICR-SPF mouse assessed as induction of body weight changes at 30 mg/kg, iv administered as single dose measured 14 days post dose; assay type: organism-based; design: dose 30 mg/kg, route intravenous; details: in vivo, 336 h
[34] = tested on: B-cell; experiment: Immunosuppressive activity in B cells (unknown origin) assessed as inhibition of LPS-induced cell proliferation at 3 to 30 ng/mL; assay type: functional, cell-based
[35] = tested on: T-cell; experiment: Immunosuppressive activity in T cells (unknown origin) assessed as inhibition of Con A-induced cell proliferation at 3 to 30 ng/mL; assay type: functional, cell-based

## COc1cc2c(c(OC)c1OC)-c1ccc(SC)c(=O)cc1C=CC2
[1]
  Activity: Non-toxic
[2]
  Activity: Non-toxic
[3]
  Activity: Non-toxic
[4]
  Activity: Non-toxic
[5]
  Activity: Non-toxic
[6]
  Activity: Non-toxic
[7]
  Activity: Non-toxic
[8]
  Activity: Non-toxic
[9]
  MLD: > 100 mg/kg
[10]
  MLD: > 100 mg/kg
[11]
  inhibition: Dose-dependent effect
[12]
  inhibition: Dose-dependent effect
[13]
  inhibition: Active
[14]
  inhibition: inactive
[15]
  inhibition: Dose-dependent effect
[16]
  Activity: Non-toxic
[17]
  Activity: Dose-dependent effect
[18]
  inhibition: Dose-dependent effect
[19]
  inhibition: Dose-dependent effect
[20]
  Activity: Non-toxic
[21]
  Activity: Non-toxic
[22]
  Activity: Non-toxic
[23]
  Activity: Non-toxic
[24]
  Activity: Non-toxic
[25]
  Activity: Non-toxic
[26]
  Activity: Non-toxic
[27]
  Activity: Non-toxic
[28]
  Activity: Non-toxic
[29]
  Activity: Non-toxic
[30]
  Activity: Non-toxic
[31]
  Activity: Non-toxic
[32]
  Activity: Non-toxic
[33]
  Activity: Non-toxic

## COc1ccc(-c2ccc(OC)c(=O)cc2)c(OC)c1OC
[34]
  inhibition: Active
[35]
  inhibition: Active

## COc1cc2c(c(OC)c1OC)-c1ccc(SC)c(=O)cc1[C@@H](NC(=O)C1CC1C)CC2 (stereo partly specified)
[21]
  Activity: Toxic
[22]
  Activity: Toxic
[23]
  Activity: Toxic

## COc1cc(C/C=C/c2ccc(OC)c(=O)cc2)cc(OC)c1OC
[34]
  inhibition: inactive
[35]
  inhibition: inactive

## COc1ccc(-c2ccc(SC)c(=O)cc2)c(OC)c1OC
[34]
  inhibition: Active
[35]
  inhibition: Active

## COc1cc2c(c(OC)c1OC)-c1ccc(SC)c(=O)cc1CCC2
[1]
  Activity: Non-toxic
[2]
  Activity: Non-toxic
[3]
  Activity: Non-toxic
[4]
  Activity: Non-toxic
[5]
  Activity: Non-toxic
[6]
  Activity: Non-toxic
[7]
  Activity: Non-toxic
[8]
  Activity: Non-toxic
[9]
  MLD: > 100 mg/kg
[10]
  MLD: > 100 mg/kg
[11]
  inhibition: Dose-dependent effect
[12]
  inhibition: Dose-dependent effect
[13]
  inhibition: Active
[14]
  inhibition: inactive
[15]
  inhibition: Dose-dependent effect
[16]
  Activity: Non-toxic
[17]
  Activity: Dose-dependent effect
[18]
  inhibition: Dose-dependent effect
[19]
  inhibition: Dose-dependent effect
[20]
  Activity: Non-toxic
[21]
  Activity: Non-toxic
[22]
  Activity: Non-toxic
[23]
  Activity: Non-toxic
[24]
  Activity: Non-toxic
[25]
  Activity: Non-toxic
[26]
  Activity: Non-toxic
[27]
  Activity: Non-toxic
[28]
  Activity: Non-toxic
[29]
  Activity: Non-toxic
[30]
  Activity: Non-toxic
[31]
  Activity: Non-toxic
[32]
  Activity: Non-toxic
[33]
  Activity: Non-toxic

## COc1cc(/C=C/c2ccc(OC)c(=O)cc2)cc(OC)c1OC
[34]
  inhibition: inactive
[35]
  inhibition: inactive

## COc1ccc(C/C=C/c2ccc(OC)c(=O)cc2)c(OC)c1OC
[34]
  inhibition: inactive
[35]
  inhibition: inactive

## COc1ccc(/C=C/c2ccc(OC)c(=O)cc2)c(OC)c1OC
[34]
  inhibition: inactive
[35]
  inhibition: inactive

Reference: ChEMBL document CHEMBL3351522, “Discovery of structurally simplified analogs of colchicine as an immunosuppressant” (Bioorg Med Chem Lett, 2014)
